Reference: paper PMC9146500, “New Quinoline–Urea–Benzothiazole Hybrids as Promising Antitubercular Agents: Synthesis, In Vitro Antitubercular Activity, Cytotoxicity Studies, and In Silico ADME Profiling” (Pharmaceuticals, 2022)
Values after ≈ are worked out from the molar mass of the structure shown. Values joined by “and” are separate entries in the source; they are usually repeats but may differ in a detail not shown here. Equal entries are not always repeated. Where two headings read alike, the source gives them in different places.

Tests used:
[1] = system: Mycobacterium tuberculosis H37Rv pMSp12::GFP; assay: microbe, parasite or virus in culture; format: cell-based; settings: Mtb H37Rv
[2] = system: Mycobacterium tuberculosis H37Rv pMSp12::GFP; assay: microbe, parasite or virus in culture; format: cell-based; settings: Mtb H37Rv, protein-rich media, 7 days, read-out: MIC90 7H9/ADC/GLU/Tw 7 Days
MTT cytotoxicity assay = settings: human; for IC20 at 24 h: IC20, HepG2, 24 h, MTT, concentration at which cells retain 80% viability, extrapolated from the dose–response curve
[3] = Mycobacterium tuberculosis, H37RV, 168 h, protein-poor media, 7 days, read-out: MIC90 7H9/CAS/GLU/Tx 7 Days
[4] = Mycobacterium tuberculosis, H37RV, 168 h
[5] = protein-poor media, 7 days, read-out: MIC90 7H9/CAS/GLU/Tx 7 Days
[6] = Mycobacterium tuberculosis, H37RV, both media (CAS and ADC) or medium not given, read-out: MIC90
[7] = both media (CAS and ADC) or medium not given
[8] = Mycobacterium tuberculosis, 168 h, protein-poor media, 7 days, read-out: MIC90 7H9/CAS/GLU/Tx 7 Days

Compound | MIC90 [1, 3] [µM] | MIC90 [2, 4] [µM] | viability at 24 h (MTT cytotoxicity assay) [%] | IC20 at 24 h (MTT cytotoxicity assay) [µM] | melting point | further results
O=C(NNc1ccnc2cc(Cl)ccc12)Nc1nc2ccc(F)cc2s1 [Compound 6c, 2-(7-Chloroquinolin-4-yl)-N-(6-fluorobenzo[d]thiazol-2-yl)hydrazine-1-carboxamide] | > 125 | > 125 | – | – | – | –
CC(CNc1ccnc2cc(Cl)ccc12)NC(=O)Nc1nc2ccc(C(F)(F)F)cc2s1 (centres unmarked) [Compound 6u, 1-(1-((7-Chloroquinolin-4-yl)amino)propan-2-yl)-3-(6-(trifluoromethyl)benzo[d]thiazol-2-yl)urea] | 0.97 (≈ 0.466 µg/mL) | 5.73 (≈ 2.75 µg/mL) | 100 | 6.01 | – | MIC90 [1, 5]: 0.968 µM (≈ 0.465 µg/mL); MIC90 [2]: 5.732 µM (≈ 2.75 µg/mL)
NC(N)=O [Urea] | – | – | – | – | – | MIC90 [1, 5]: >125 µM; MIC90 [2]: >125 µM
CC(CNc1ccnc2cc(Cl)ccc12)NC(=O)Nc1nc2ccc(Br)cc2s1 (centres unmarked) [Compound 6w, 1-(1-((7-Chloroquinolin-4-yl)amino)propan-2-yl)-3-(6-bromobenzo[d]thiazol-2-yl)urea] | 8.19 (≈ 4.02 µg/mL) | 14 (≈ 6.87 µg/mL) | 19 | 3.38 | 246 to 248 °C | –
O=C(NCCCCCCNc1ccnc2cc(Cl)ccc12)Nc1nc2ccc(F)cc2s1 [Compound 6t, 1-(6-((7-Chloroquinolin-4-yl)amino)hexyl)-3-(6-fluorobenzo[d]thiazol-2-yl)urea] | 6.97 (≈ 3.29 µg/mL) | 31.2 (≈ 14.7 µg/mL) | 92 | 12.9 | 256 to 259 °C | MIC90 [1, 6]: 6.97 to 31.2 µM (≈ 3.29 to 14.7 µg/mL)
O=C(NCCCCNc1ccnc2cc(Cl)ccc12)Nc1nc2ccc(F)cc2s1 [Compound 6q, 1-(6-Fluorobenzo[d]thiazol-2-yl)-3-(4-((7-chloroquinolin-4-yl)amino)butyl)urea] | > 125 | > 125 | – | – | 256 to 259 °C | MIC90 [1, 7]: not active at all
O=C(Nc1nc2ccc(F)cc2s1)n1ccnc1 [Compound 5b] | > 125 | > 125 | – | – | – | –
CO[C@H]1/C=C/O[C@@]2(C)Oc3c(C)c(O)c4c(O)c(c(/C=N/N5CCN(C)CC5)c(O)c4c3C2=O)NC(=O)/C(C)=C\C=C\[C@H](C)[C@H](O)[C@@H](C)[C@@H](O)[C@@H](C)[C@H](OC(C)=O)[C@@H]1C [RIF, Rifampicin, reference compound] | 0.03 (≈ 0.0247 µg/mL) | 0.001 (≈ 0.000823 µg/mL) | – | – | – | –
O=C(NCCCCNc1ccnc2cc(Cl)ccc12)Nc1nc2ccc(Cl)cc2s1 [Compound 6o, 1-(6-Chlorobenzo[d]thiazol-2-yl)-3-(4-((7-chloroquinolin-4-yl)amino)butyl)urea] | 7.46 (≈ 3.43 µg/mL) | 23.5 (≈ 10.8 µg/mL) | 30 | 2.13 | 189 to 191 °C and 189.8 to 191.3 °C | MIC [1, 8]: 7.43 µM (≈ 3.42 µg/mL)
O=C(NNc1ccnc2cc(Cl)ccc12)Nc1nc2ccc([N+](=O)[O-])cc2s1 [Compound 6d, 2-(7-Chloroquinolin-4-yl)-N-(6-nitrobenzo[d]thiazol-2-yl)hydrazine-1-carboxamide] | > 125 | > 125 | – | – | – | –
NCCCCCCNc1ccnc2cc(Cl)ccc12 [Compound 2e] | > 125 | > 125 | – | – | – | –
O=C(NNc1ccnc2cc(Cl)ccc12)Nc1nc2ccccc2s1 [Compound 6a, N-(Benzo[d]thiazol-2yl)-2-(7-chloroquinolin-4-yl)hydrazine-1-carboxamide] | 21 (≈ 7.77 µg/mL) | > 125 | 75 | 15.1 | – | MIC90 [1, 5]: 21.001 µM (≈ 7.77 µg/mL)
O=C(NCCCNc1ccnc2cc(Cl)ccc12)Nc1nc2ccc(F)cc2s1 [Compound 6n, 1-(6-Fluorobenzo[d]thiazol-2-yl)-3-(3-((7-chloroquinolin-4-yl)amino)propyl)urea] | > 125 | 125 (≈ 53.7 µg/mL) | – | – | 241 to 243 °C | MIC90 [1, 7]: devoid of any activity
O=C(NCCCCCCNc1ccnc2cc(Cl)ccc12)Nc1nc2ccc(Br)cc2s1 [Compound 6s, 1-(6-Bromobenzo[d]thiazol-2-yl)-3-(6-((7-chloroquinolin-4-yl)amino)hexyl)urea] | 8.76 (≈ 4.67 µg/mL) | 21 (≈ 11.2 µg/mL) | 76 | 7.02 | 192 to 194 °C | –
O=C(NCCCNc1ccnc2cc(Cl)ccc12)Nc1nc2ccc(C(F)(F)F)cc2s1 [Compound 6i, 1-(3-((7-Chloroquinolin-4-yl)amino)propyl)-3-(6-(trifluoromethyl)benzo[d]thiazol-2-yl)urea] | 7.81 (≈ 3.75 µg/mL) | 12.8 (≈ 6.16 µg/mL) | 87 | 11.2 | 198 to 200 °C | –
CC(CNc1ccnc2cc(Cl)ccc12)NC(=O)Nc1nc2ccc(Cl)cc2s1 (centres unmarked) [Compound 6y, 1-(1-((7-Chloroquinolin-4-yl)amino)propan-2-yl)-3-(6-chlorobenzo[d]thiazol-2-yl)urea] | 2.33 (≈ 1.04 µg/mL) | 8.46 (≈ 3.77 µg/mL) | 78 | 2.22 | 301 to 304 °C | –
CC(CNc1ccnc2cc(Cl)ccc12)NC(=O)Nc1nc2ccc(F)cc2s1 (centres unmarked) [Compound 6v, 1-(1-((7-Chloroquinolin-4-yl)amino)propan-2-yl)-3-(6-fluorobenzo[d]thiazol-2-yl)urea] | > 125 | > 125 | – | – | 228 to 230 °C | –
Cc1ccc2nc(NC(=O)NCCCNc3ccnc4cc(Cl)ccc34)sc2c1 [Compound 6k, 1-(3-((7-Chloroquinolin-4-yl)amino)propyl)-3-(6-methylbenzo[d]thiazol-2-yl)urea] | 31.2 (≈ 13.3 µg/mL) | 62.3 (≈ 26.5 µg/mL) | 93 | 42.7 | 234 to 239 °C | –
O=C(NCCNc1ccnc2cc(Cl)ccc12)Nc1nc2ccc(C(F)(F)F)cc2s1 [Compound 6e, 1-(2-((7-Chloroquinolin-4-yl)amino)ethyl)-3-(6-(trifluoromethyl)benzo[d]thiazol-2-yl)urea] | – | – | – | – | 249 to 251 °C | –
O=C(NCCNc1ccnc2cc(Cl)ccc12)Nc1nc2ccc(F)cc2s1 [Compound 6h, 1-(6-Fluorobenzo[d]thiazol-2-yl)-3-(2-((7-chloroquinolin-4-yl)amino)ethyl)urea] | – | – | – | – | – | MIC [1, 8]: 62.5 µM (≈ 26 µg/mL); MIC90 [1, 6]: 62.5 µM (≈ 26 µg/mL); MIC ([2]; Mycobacterium tuberculosis, 168 h): 62.5 µM (≈ 26 µg/mL)
O=C(NCCCNc1ccnc2cc(Cl)ccc12)Nc1nc2ccccc2s1 [Compound 6l, 1-(3-((7-Chloroquinolin-4-yl)amino)propyl)-3-(benzo[d]thiazol-2-yl)urea] | 9.63 (≈ 3.97 µg/mL) | 9.45 (≈ 3.89 µg/mL) | 100 | 105 | – | MIC90 [2]: 9.447 µM (≈ 3.89 µg/mL)
O=C(NCCNc1ccnc2cc(Cl)ccc12)Nc1nc2ccc(Cl)cc2s1 [Compound 6f, 1-(6-Chlorobenzo[d]thiazol-2-yl)-3-(2-((7-chloroquinolin-4-yl)amino)ethyl)urea] | 125 (≈ 54 µg/mL) | > 125 | – | – | 244 to 245 °C | –
O=C(NNc1ccnc2cc(Cl)ccc12)Nc1nc2ccc(C(F)(F)F)cc2s1 [Compound 6b, 2-(7-Chloroquinolin-4-yl)-N-(6-(trifluoromethyl)benzo[d]thiazol-2-yl)hydrazine-1-carboxamide] | 4.94 (≈ 2.16 µg/mL) | 6.85 (≈ 3 µg/mL) | – | – | – | MIC90 [1, 7]: excellent activity in both media
